Assay results taken from article PMC9784828, “Antimicrobial Activity of Peptide-Coupled Antisense Peptide Nucleic Acids in Streptococcus pneumoniae” (Microbiology Spectrum, 2022).

Legend:
[1] = test system: G. mellonella larvae infected with S. pneumoniae TIGR4; experiment: G. mellonella infection model, larval survival; assay type: in vivo, Galleria mellonella; conditions: 10 nmol CPP-PNA/larva; for Effect on survival of infected larvae (in words): data not shown
Protocol: Antimicrobial efficiency of CPP-antisense PNA conjugates was evaluated in vivo employing a G. mellonella infection and treatment model ([22], [28]). Larvae were infected with S. pneumoniae strain TIGR4 and subsequently treated with 10 nmol CPP-anti-gyrA PNAs. Treatment with levofloxacin served as a positive control. Larval survival was observed over 7 days.
Larvae of the greater wax moth (G. mellonella) were obtained from Bugs-International GmbH (Irsingen/Unterfeld, Germany). For infection experiments, S. pneumoniae TIGR4 was grown for 7 h in BHI, washed twice in a 0.9% NaCl solution, and suspended in 0.9% NaCl to a final concentration of approximately 1 × 10^8 CFU/mL. Larvae weighing 150 to 200 mg were infected with 1 × 10^6 to 3 × 10^6 CFU/larva. Bacteria were injected into the hemocoel of the larvae between the last two pairs of prolegs using a microapplicator (World Precision Instruments, LLC, Sarasota, FL) and a fine-dosage syringe (Omnican-F, 0.01 to 1 mL, 0.30 × 12 mm; B. Braun AG, Melsungen, Germany). As mock control, 0.9% NaCl (PNA experiment) or 0.9% NaCl/3% DMSO (levofloxacin experiment) was injected. For CPP-PNA treatment, larvae were injected 30 min postinfection with 10 nmol CPP-PNA/larva. For levofloxacin treatment, larvae were injected 30 min postinfection with 1 or 10 μg levofloxacin/larva. Larvae were incubated for 7 days, and survival was monitored daily ([22]).

S. pneumoniae strain 19F = experiment: Bacterial killing assay (CFU/mL reduction after 6 h); assay type: cell-based, Streptococcus pneumoniae; conditions: log CFU reduction CPP-antisense PNA – log CFU reduction CPP-scPNA
Protocol: Compared to S. pneumoniae strains TIGR4 and D39, strain 19F was clearly affected by incubation with CPP-coupled scPNAs (Fig. S2). Specific antimicrobial activity of TAT-antisense PNAs was low, regardless of the target gene (Fig. S2, Table 2).
(§1) After culturing S. pneumoniae strains in BHI, D39 and 19F were diluted to approximately 10^5 CFU/mL in phosphate-buffered saline (PBS):BHI (93%:7%), while TIGR4 was diluted to approximately 10^5 CFU/mL in PBS:BHI (96%:4%). Next, 450-μL volumes of the respective bacterial suspensions, containing approximately 0.5× 10^5 CFU, were transferred to 2-mL reaction tubes. A 50-μL volume of PNA solution was added to a final PNA concentration of 1 to 20 μM or as indicated. Fifty μL H2O served as a mock control. The reaction tubes were incubated for 6 h at 37°C and 7 rpm (Rotor SB3; Stuart, Staffordshire, United Kingdom). The concentration of CPP-PNA that reduced CFU/mL by 50% after 6 h of incubation compared to an untreated control (IC50) was calculated by nonlinear regression analysis using GraphPad Prism software (GraphPad Software, San Diego, CA).

S. pneumoniae strain D39 = experiment: as above; assay type: cell-based, Streptococcus pneumoniae; conditions: log CFU reduction CPP-antisense PNA – log CFU reduction CPP-scPNA
Protocol: Similar results were obtained with S. pneumoniae strain D39 (Fig. S1). (RXR)4XB-coupled antisense PNAs were more efficient than TAT-coupled antisense PNAs. […] The difference between the target genes anti-gyrA and anti-rpoB was less pronounced in D39 than in TIGR4 (Table 2).
as §1

S. pneumoniae TIGR4 = experiment: as above; assay type: cell-based, Streptococcus pneumoniae; conditions: for Δlog CFU reduction in S. pneumoniae strains: TIGR4: log CFU reduction CPP-antisense PNA – log CFU reduction CPP-scPNA; for Reduction of bacterial CFU/mL compared to untreated control (in words): concentration range 2.5 to 20 μM, n = 5
Protocol: The impact of different CPPs on the efficacy of antisense PNAs targeting gyrA and rpoB in S. pneumoniae was tested using an in vitro killing assay ([25]). S. pneumoniae strains were incubated for 6 h with CPP-antisense PNA conjugates. We determined the reduction of bacterial CFU/mL caused by different CPP-coupled antisense PNA constructs compared to an untreated control. Three different CPPs were tested: HIV-1 TAT (TAT), oligolysin (K8), and (RXR)4XB (Table 1). Concentration-dependent bactericidal activity was investigated by treatment of S. pneumoniae TIGR4 in a CPP-antisense PNA conjugate concentration range of 2.5 to 20 μM (Fig. 1).
as §1

Q: What does the source list for “GRKKRRQRRRYK-eg-ctgccaagatga [TAT-anti-rpoB PNA, HIV-1 TAT (48–57) peptide coupled to antisense PNA against S. pneumoniae rpoB]”?
A: Effect on survival of infected larvae (in words) [1]: did not increase survival; Δlog CFU reduction in S. pneumoniae strains: 19F (S. pneumoniae strain 19F; CPNA 2.5 μM): 0.05; Δlog CFU reduction in S. pneumoniae strains: 19F (S. pneumoniae strain 19F; CPNA 5 μM): 0.05; Δlog CFU reduction in S. pneumoniae strains: 19F (S. pneumoniae strain 19F; CPNA 10 μM): 0; Δlog CFU reduction in S. pneumoniae strains: 19F (S. pneumoniae strain 19F; CPNA 20 μM): 0; Δlog CFU reduction in S. pneumoniae strains: D39 (S. pneumoniae strain D39; CPNA 2.5 μM): 0; Δlog CFU reduction in S. pneumoniae strains: D39 (S. pneumoniae strain D39; CPNA 5 μM): 0.11; Δlog CFU reduction in S. pneumoniae strains: D39 (S. pneumoniae strain D39; CPNA 10 μM): 0.16; Δlog CFU reduction in S. pneumoniae strains: D39 (S. pneumoniae strain D39; CPNA 20 μM): 0.51; Δlog CFU reduction in S. pneumoniae strains: TIGR4 (S. pneumoniae TIGR4; CPNA 2.5 μM, 6 h): 0; Δlog CFU reduction in S. pneumoniae strains: TIGR4 (S. pneumoniae TIGR4; CPNA 5 μM, 6 h): 0; Δlog CFU reduction in S. pneumoniae strains: TIGR4 (S. pneumoniae TIGR4; CPNA 10 μM, 6 h): 0; Δlog CFU reduction in S. pneumoniae strains: TIGR4 (S. pneumoniae TIGR4; CPNA 20 μM, 6 h): 0; Reduction of bacterial CFU/mL compared to untreated control (in words) (S. pneumoniae TIGR4; TIGR4, 6 h): No reduction of bacterial counts

Q: For “RXRRXRRXRRXRXB-eg-ctgccaagatga [(RXR)4XB-anti-rpoB PNA, (RXR)4XB peptide coupled to antisense PNA against rpoB]”, which “Effect on survival of infected larvae (in words)” value [1] is on record?
A: did not increase survival

Q: And the “Δlog CFU reduction in S. pneumoniae strains: 19F” value (from here on “Δlog CFU reduction … 19F”) (S. pneumoniae strain 19F; CPNA 2.5 μM)?
A: 0.18

Q: What about the “Δlog CFU reduction … 19F” value (S. pneumoniae strain 19F; CPNA 5 μM) of the same substance?
A: 0.17

Q: What about the “Δlog CFU reduction … 19F” value (S. pneumoniae strain 19F; CPNA 10 μM) of the same substance?
A: 0.16

Q: What about the “Δlog CFU reduction … 19F” value (S. pneumoniae strain 19F; CPNA 20 μM) of the same substance?
A: 0.56

Q: And the “Δlog CFU reduction in S. pneumoniae strains: D39” value (shortened to “Δlog CFU reduction … D39”) (S. pneumoniae strain D39; CPNA 2.5 μM)?
A: 0

Q: And the “Δlog CFU reduction … D39” value (S. pneumoniae strain D39; CPNA 5 μM)?
A: 0.16

Q: What about the “Δlog CFU reduction … D39” value (S. pneumoniae strain D39; CPNA 10 μM) of the same substance?
A: 0.61

Q: What about the “Δlog CFU reduction … D39” value (S. pneumoniae strain D39; CPNA 20 μM) of the same substance?
A: 1.98

Q: What about the “Δlog CFU reduction in S. pneumoniae strains: TIGR4” value (“Δlog CFU reduction … TIGR4” for short) (S. pneumoniae TIGR4; CPNA 2.5 μM, 6 h) of the same substance?
A: 0

Q: What about the “Δlog CFU reduction … TIGR4” value (S. pneumoniae TIGR4; CPNA 5 μM, 6 h) of the same substance?
A: 0.40

Q: What about the “Δlog CFU reduction … TIGR4” value (S. pneumoniae TIGR4; CPNA 10 μM, 6 h) of the same substance?
A: 0.66

Q: What about the “Δlog CFU reduction … TIGR4” value (S. pneumoniae TIGR4; CPNA 20 μM, 6 h) of the same substance?
A: ≥ 1

Q: What about the “Δlog CFU reduction … TIGR4” value (S. pneumoniae TIGR4; CPNA 20 μM, 6 h, listed as (RXR)4XB-anti-rpoB) of the same substance?
A: 1.58

Q: And the “Reduction of bacterial CFU/mL compared to untreated control (in words)” value (S. pneumoniae TIGR4; TIGR4, 6 h)?
A: significant decreases

Q: Which “Increase of survival rate” value ([1]; 30 min postinfection, 7 days, n = 60) does the source give for “RXRRXRRXRRXRXB-eg-tgcattaata [(RXR)4XB-anti-gyrA PNA, (RXR)4XB peptide coupled to antisense PNA against gyrA]” here?
A: 22%

Q: And the “Δlog CFU reduction … 19F” value (S. pneumoniae strain 19F; CPNA 2.5 μM)?
A: 0.72

Q: What about the “Δlog CFU reduction … 19F” value (S. pneumoniae strain 19F; CPNA 5 μM) of the same substance?
A: 1.20

Q: What about the “Δlog CFU reduction … 19F” value (S. pneumoniae strain 19F; CPNA 10 μM) of the same substance?
A: ≥ 1

Q: What about the “Δlog CFU reduction … 19F” value (S. pneumoniae strain 19F; CPNA 10 μM, listed as (RXR)4XB-anti-gyrA) of the same substance?
A: 1.21

Q: And the “Δlog CFU reduction … 19F” value (S. pneumoniae strain 19F; CPNA 20 μM)?
A: 1.48

Q: What about the “Δlog CFU reduction … D39” value (S. pneumoniae strain D39; CPNA 2.5 μM) of the same substance?
A: 0

Q: What about the “Δlog CFU reduction … D39” value (S. pneumoniae strain D39; CPNA 5 μM) of the same substance?
A: 0

Q: What about the “Δlog CFU reduction … D39” value (S. pneumoniae strain D39; CPNA 10 μM) of the same substance?
A: 0.42

Q: And the “Δlog CFU reduction … D39” value (S. pneumoniae strain D39; CPNA 20 μM)?
A: 2.23

Q: What about the “Δlog CFU reduction … TIGR4” value (S. pneumoniae TIGR4; CPNA 2.5 μM, 6 h) of the same substance?
A: 0

Q: What about the “Δlog CFU reduction … TIGR4” value (S. pneumoniae TIGR4; CPNA 5 μM, 6 h) of the same substance?
A: 0.98

Q: And the “Δlog CFU reduction … TIGR4” value (S. pneumoniae TIGR4; CPNA 10 μM, 6 h)?
A: ≥ 1

Q: And the “Δlog CFU reduction … TIGR4” value (S. pneumoniae TIGR4; CPNA 10 μM, 6 h, listed as (RXR)4XB-anti-gyrA)?
A: 1.80

Q: And the “Δlog CFU reduction … TIGR4” value (S. pneumoniae TIGR4; CPNA 20 μM, 6 h)?
A: 3.18

Q: What about the “log CFU reduction” value (S. pneumoniae TIGR4; TIGR4, 6 h, 20 μM CPP-PNA) of the same substance?
A: 4

Q: What about the “Reduction of bacterial CFU/mL compared to untreated control (in words)” value (S. pneumoniae TIGR4; TIGR4, 6 h) of the same substance?
A: significant decreases

Q: What about the IC50 (S. pneumoniae TIGR4; TIGR4, 6 h incubation vs untreated control, nonlinear regression, read-out: 50% inhibitory concentration (IC50): concentration that reduced CFU/mL by 50%) of the same substance?
A: 0.63 µM
